US9434725B2, “5-azaindazole compounds and methods of use” (priority 2012, dated 2016)
Read-outs that look alike come from different tables or passages of the source.

Legend:
Assay type in all cases: biochemical
PIM1 = PIM1 (Homo sapiens (Human), UniProt P11309); experiment: biochemical
Protocol: (§1) A fluorescent-labeled Pim-specific peptide substrate, was custom synthesized by American Peptide Company (Sunnyvale, Calif.). Reaction Buffer contained 10 mM HEPES, pH 7.2, 10 mM MgCl2, 0.01% Tween 20, 2 mM DTT. Termination Buffer contained 190 mM HEPES, pH 7.2, 0.015% Brij-35, 0.2% Coating Reagent 3 (Caliper Life Sciences, Hopkinton, Mass.), 20 mM EDTA. Separation Buffer contained 100 mM HEPES, pH 7.2, 0.015% Brij-35, 0.1% Coating Reagent 3, 1:200 Coating Reagent 8 (Caliper Life Sciences, Hopkinton, Mass.), 10 mM EDTA and 5% DMSO.
(§2) PIM reactions were carried out in a final volume of 10 μL per well in a 384-well plate. […] After 90 minutes of incubation at room temperature, the phosphorylation reaction was stopped by the addition of 10 μL Termination Buffer. The product and substrate in each independent reaction were separated on a 12-sipper microfluidic chip (Caliper Life Sciences, Hopkinton, Mass.) run on a Caliper LC3000® (Caliper Life Sciences, Hopkinton, Mass.). The separation of product and substrate was optimized by choosing voltages and pressure using Caliper's Optimizer software (Hopkinton, Mass.). […] Substrate conversion was calculated from the electropherogram using HTS Well Analyzer software (Caliper Life Sciences, Hopkinton, Mass.). Ki values for the test compound were calculated.

PIM2 = PIM2 (Homo sapiens (Human), UniProt Q9P1W9); experiment: Pim kinase binding activity, Caliper LC3000 microfluidic peptide phosphorylation assay, PIM2; conditions: 10 μM ATP, 90 min, room temperature; read-out: PIM2 LC3K (KI)
Protocol: as §1, §2

PIM3 = PIM3 (Homo sapiens (Human), UniProt Q86V86); experiment: Pim kinase binding activity, Caliper LC3000 microfluidic peptide phosphorylation assay, PIM3; conditions: 10 μM ATP, 90 min, room temperature; read-out: PIM3 LC3K (KI)
Protocol: as §1, §2

[1] = 10 μM ATP, 90 min, room temperature, read-out: PIM1 LC3K (KI)

Chain of PIM2 (Q9P1W9 whole entry): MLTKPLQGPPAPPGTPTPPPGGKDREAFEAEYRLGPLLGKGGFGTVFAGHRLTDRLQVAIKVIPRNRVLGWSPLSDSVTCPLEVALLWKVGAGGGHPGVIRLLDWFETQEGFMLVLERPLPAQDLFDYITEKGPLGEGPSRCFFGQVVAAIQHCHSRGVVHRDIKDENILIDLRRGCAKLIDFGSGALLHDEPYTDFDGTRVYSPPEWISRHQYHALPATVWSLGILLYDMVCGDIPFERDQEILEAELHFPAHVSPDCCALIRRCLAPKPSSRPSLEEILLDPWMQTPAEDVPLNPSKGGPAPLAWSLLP
Chain of PIM1 (P11309 whole entry): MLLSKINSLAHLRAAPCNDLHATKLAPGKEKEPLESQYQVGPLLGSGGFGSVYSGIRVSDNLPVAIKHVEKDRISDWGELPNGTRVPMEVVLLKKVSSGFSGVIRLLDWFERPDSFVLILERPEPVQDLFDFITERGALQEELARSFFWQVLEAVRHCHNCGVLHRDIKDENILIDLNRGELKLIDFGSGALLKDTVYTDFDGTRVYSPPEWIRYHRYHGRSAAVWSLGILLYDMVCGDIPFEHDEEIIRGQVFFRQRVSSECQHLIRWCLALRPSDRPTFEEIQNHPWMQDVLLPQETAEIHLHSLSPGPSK

| Structure (SMILES) | Ki (PIM1; [1]) [nM] | Ki (PIM2) [nM] | Ki (PIM3) [nM] | Ki (PIM1) [nM] |
| --- | --- | --- | --- | --- |
| Cc1ccc(-n2ncc3cnc(-c4cnn(CC(F)(F)F)c4)cc32)nc1N1CCNC[C@H](O)C1 (single isomer, unassigned) [Compound 263] | 0.253 | 6.51 | 0.536 |  |
| Cn1cc(-c2cc3c(cn2)cnn3-c2cccc(N3CCNCC3)n2)cn1 [Compound 102, 6-(1-methyl-1H-pyrazol-4-yl)-1-(6-(piperazin-1-yl)pyridin-2-yl)-1H-pyrazolo[4,3-c]pyridine] | 0.623 | 12.1 |  |  |
| c1cc(N2CCNCC2)nc(-n2ncc3cnc(-c4cncc(C5CC5)c4)cc32)c1 [Compound 111, 6-(5-cyclopropylpyridin-3-yl)-1-(6-(piperazin-1-yl)pyridin-2-yl)-1H-pyrazolo[4,3-c]pyridine] | 0.165 | 9.11 | 0.181 |  |
| C[C@H]1CN(c2cccc(-n3ncc4cnc(-c5cncc(C6COC6)c5)cc43)n2)CCN1 [Compound 113, (S)-1-(6-(3-methylpiperazin-1-yl)pyridin-2-yl)-6-(5-(oxetan-3-yl)pyridin-3-yl)-1H-pyrazolo[4,3-c]pyridine] | 0.107 | 10.1 | 0.186 |  |
| c1cc(N2CCNCC2)nc(-n2ncc3cnc(-c4cncc(C5COC5)c4)cc32)c1 [Compound 114, 6-(5-(oxetan-3-yl)pyridin-3-yl)-1-(6-(piperazin-1-yl)pyridin-2-yl)-1H-pyrazolo[4,3-c]pyridine] | 0.479 | 16.9 | 0.652 |  |
| OC1CNCCN(c2cccc(-n3ncc4cnc(-c5cncc(C6CC6)c5)cc43)n2)C1 (stereo not shown) [Compound 115, 1-(6-(6-(5-cyclopropylpyridin-3-yl)-1H-pyrazolo[4,3-c]pyridin-1-yl)pyridin-2-yl)-1,4-diazepan-6-ol] | 0.155 | 14.9 | 0.306 |  |
| OC1CNCCN(c2cccc(-n3ncc4cnc(-c5cncc(C6COC6)c5)cc43)n2)C1 (stereo not shown) [Compound 116, 1-(6-(6-(5-(oxetan-3-yl)pyridin-3-yl)-1H-pyrazolo[4,3-c]pyridin-1-yl)pyridin-2-yl)-1,4-diazepan-6-ol] | 0.294 | 27.6 | 0.405 |  |
| c1cc(N2CCCNCC2)nc(-n2ncc3cnc(-c4cncc(C5COC5)c4)cc32)c1 [Compound 118, 1-(6-(1,4-diazepan-1-yl)pyridin-2-yl)-6-(5-(oxetan-3-yl)pyridin-3-yl)-1H-pyrazolo[4,3-c]pyridine] | 0.08 | 9.04 | 0.117 |  |
| CCn1cc(-c2cc3c(cn2)cnn3-c2cccc(N3CC[C@H](O)C3)n2)cn1 [Compound 127, (S)-1-(6-(6-(1-ethyl-1H-pyrazol-4-yl)-1H-pyrazolo[4,3-c]pyridin-1-yl)pyridin-2-yl)pyrrolidin-3-ol] | 3.04 |  | 1.31 |  |
| CCn1cc(-c2cc3c(cn2)cnn3-c2cccc(N3CC[C@@H](O)C3)n2)cn1 [Compound 128, (R)-1-(6-(6-(1-ethyl-1H-pyrazol-4-yl)-1H-pyrazolo[4,3-c]pyridin-1-yl)pyridin-2-yl)pyrrolidin-3-ol] | 7.22 |  | 4.39 |  |
| Cc1cncc(-c2cc3c(cn2)cnn3-c2cccc(N3CCCC(N)C3C)n2)n1 (stereo not shown) [Compound 195, 2-methyl-1-[6-[6-(6-methylpyrazin-2-yl)pyrazolo[4,3-c]pyridin-1-yl]-2-pyridyl]piperidin-3-amine] |  | 1.03 | 0.057 |  |
| Cc1nc(-c2cc3c(cn2)cnn3-c2cccc(N3CCCNCC3)n2)cnc1N [Compound 208, 5-(1-(6-(1,4-diazepan-1-yl)pyridin-2-yl)-1H-pyrazolo[4,3-c]pyridin-6-yl)-3-methylpyrazin-2-amine] |  | 0.748 | 0.014 |  |
| Cc1cncc(-c2cc3c(cn2)cnn3-c2ccc(F)c(N3CCC[C@H](N)C3)n2)n1 [Compound 215, (S)-1-(3-fluoro-6-(6-(6-methylpyrazin-2-yl)-1H-pyrazolo[4,3-c]pyridin-1-yl)pyridin-2-yl)piperidin-3-amine] |  | 0.314 | 0.011 |  |
| Cc1cncc(-c2cc3c(cn2)cnn3-c2ccc(C(F)(F)F)c(N3CCC[C@H](N)C3)n2)n1 [Compound 220, (S)-1-(6-(6-(6-methylpyrazin-2-yl)-1H-pyrazolo[4,3-c]pyridin-1-yl)-3-(trifluoromethyl)pyridin-2-yl)piperidin-3-amine] |  | 0.115 | 0.009 |  |
| Cn1cc(-c2cc3c(cn2)cnn3-c2cccc(N3CCCNCC3)n2)cn1 [Compound 224, 1-(6-(1,4-Diazepan-1-yl)pyridin-2-yl)-6-(1-methyl-1H-pyrazol-4-yl)-1H-pyrazolo[4,3-c]pyridine] |  | 5.01 | 0.097 |  |
| Cc1cncc(-c2cc3c(cn2)cnn3-c2cccc(N3CCC[C@H](N)C3=O)n2)n1 [Compound 225, (3S)-3-amino-1-[6-[6-(6-methylpyrazin-2-yl)pyrazolo[4,3-c]pyridin-1-yl]-2-pyridyl]piperidin-2-one] |  | 4.29 | 0.267 |  |
| Cc1cncc(-c2cc3c(cn2)cnn3-c2cccc(C3CNCCC3(F)F)n2)n1 (stereo not shown) [Compound 259, 1-[6-(4,4-difluoro-3-piperidyl)-2-pyridyl]-6-(6-methylpyrazin-2-yl)pyrazolo[4,3-c]pyridine] | 0.053 | 0.242 |  |  |
| Cn1cc(-c2cc3c(cn2)cnn3-c2cccc(N3CC4(CNC4)C3)n2)cn1 [Compound 268, 1-(6-(2,6-Diazaspiro[3.3]heptan-2-yl)pyridin-2-yl)-6-(1-methyl-1H-pyrazol-4-yl)-1H-pyrazolo[4,3-c]pyridine] | 11.5 | 149 |  |  |
| Cc1cncc(-c2cc3c(cn2)cnn3-c2ccc(=O)n([C@@H]3CCCNC3)n2)n1 [Compound 290, (R)-6-(6-(6-methylpyrazin-2-yl)-1H-pyrazolo[4,3-c]pyridin-1-yl)-2-(piperidin-3-yl)pyridazin-3(2H)-one] |  | 43.2 |  | 16.3 |
| CNc1cccc(-n2ncc3cnc(-c4cncc(C)n4)cc32)n1 [Compound 297, N-methyl-6-(6-(6-methylpyrazin-2-yl)-1H-pyrazolo[4,3-c]pyridin-1-yl)pyridin-2-amine] |  | 3.43 | 0.235 |  |
| Cc1cncc(-c2cc3c(cn2)cnn3-c2cccc(C(=O)N3CCC[C@H](N)C3)n2)n1 [Compound 302, (S)-(3-aminopiperidin-1-yl)(6-(6-(6-methylpyrazin-2-yl)-1H-pyrazolo[4,3-c]pyridin-1-yl)pyridin-2-yl)methanone] |  | 183 | 20.1 |  |
| Cc1cncc(-c2cc3c(cn2)cnn3-c2cccc(C(=O)N3CCC[C@@H](N)C3)n2)n1 [Compound 303, (R)-(3-aminopiperidin-1-yl)(6-(6-(6-methylpyrazin-2-yl)-1H-pyrazolo[4,3-c]pyridin-1-yl)pyridin-2-yl)methanone] |  | 193 | 15.6 |  |
| c1ccc(-n2ncc3cnc(-c4cncc(NC5CNC5)n4)cc32)nc1 [Compound 308, N-(azetidin-3-yl)-6-(1-(pyridin-2-yl)-1H-pyrazolo[4,3-c]pyridin-6-yl)pyrazin-2-amine] |  | 4.31 | 0.4 |  |
| Cc1cncc(-c2cc3c(cn2)cnn3-c2cccc(OC3CCCC(N)C3)n2)n1 (stereo not shown) [Compound 310, 3-(6-(6-(6-methylpyrazin-2-yl)-1H-pyrazolo[4,3-c]pyridin-1-yl)pyridin-2-yloxy)cyclohexanamine] | 1.64 |  | 1.63 |  |
